These results are taken from patent US20250032454A1, “KDM1A INHIBITORS FOR THE TREATMENT OF DISEASE” (Imago Biosciences, Inc., priority 2021, published 2025).

Like-named read-outs stand apart in the source and are kept apart here.

The target of assay [1] is LSD1 (Homo sapiens, UniProt O60341). The experiment in a line: LSD1 fluorescence coupling enzyme assay (HRP/Amplex Red, H3(1-21)K4me2 peptide), 10-dose IC50. Format: biochemical. The settings on record: 10 μM histone H3(1-21)K4me2 peptide substrate, 3-fold serial dilution from 100 μM. Summed up:
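Fluorescence coupled assay: LSD1 demethylation of 10 μM H3(1-21)K4me2 peptide produces FAD-dependent H2O2, detected via HRP/Amplex Red as resorufin (Ex/Em 535/590 nm). IC50 from 10 doses, 3-fold serial dilution from 100 μM, in duplicate.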

Assay [2] concerns MV4;11 cells. The experiment in a line: Cell Titer-Glo cell growth inhibition in MV4;11 cell line (Day 5 / Day 10). The format is cell-based. The settings on record: Homo sapiens. Summed up: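 Cells seeded at 3750/well and treated with a 10-point, 4-fold dose curve from 0 to 50 µM; ATP-based luminescence viability read at Day 5. A portion is reseeded into fresh compound and media for 5 more days, read at Day 10; IC50 derived from luminescence.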

[3] abbreviates: MV4-11, 120 h, Day 5, read-out: Cell Titer-Glo IC50 (5 d).
Where [4] appears, read: MV4-11, 240 h, Day 10, read-out: Cell Titer-Glo IC50 (10 d).

`N#Cc1ccc(-c2cc(NC[C@H]3CCC[C@H](N)C3)nn2-c2ccc(N3CCS(=O)(=O)CC3)cc2)cc1F` [Example 50, 4-(3-((((1S,3S)-3-aminocyclohexyl)methyl)amino)-1-(4-(1,1-dioxidothiomorpholino)phenyl)-1H-pyrazol-5-yl)-2-fluorobenzonitrile]: the IC50 in assay [1], in assay [2] (setting [3]) and in assay [2] (setting [4]) was < 500 nM throughout.

As for `N#Cc1ccc(-c2cc(NC[C@H]3CCC[C@H](N)C3)nn2-c2cccc(N3CCS(=O)(=O)CC3)c2)cc1F` [Example 51, 4-(3-((((1S,3S)-3-aminocyclohexyl)methyl)amino)-1-(3-(1,1-dioxidothiomorpholino)phenyl)-1H-pyrazol-5-yl)-2-fluorobenzonitrile], the concentration for half-maximal inhibition (IC50) was 1000 to 10000 nM in assay [1], 1000 to 10000 nM in assay [2] (setting [3]) and < 500 nM in assay [2] (setting [4]).

For `N#Cc1ccc(-c2cc(NC[C@H]3CCC[C@H](N)C3)nn2-c2ccc(-c3cn[nH]c3)cc2)cc1F` [Example 52, 4-(1-(4-(1H-pyrazol-4-yl)phenyl)-3-((((1S,3S)-3-aminocyclohexyl)methyl)amino)-1H-pyrazol-5-yl)-2-fluorobenzonitrile], the half-inhibitory concentration (IC50) in assay [1], in assay [2] (setting [3]) and in assay [2] (setting [4]) was < 500 nM in each case.

In the case of `N#Cc1ccc(-c2cc(NC[C@H]3CCC[C@H](N)C3)nn2-c2cccc(-c3cn[nH]c3)c2)cc1F` [Example 53, 4-(1-(3-(1H-pyrazol-4-yl)phenyl)-3-((((1S,3S)-3-aminocyclohexyl)methyl)amino)-1H-pyrazol-5-yl)-2-fluorobenzonitrile], the concentration for half-maximal inhibition (IC50) was < 500 nM in assay [1], 500 to 1000 nM in assay [2] (setting [3]) and < 500 nM in assay [2] (setting [4]).

Regarding `Cn1cc(-c2ccc(-n3nc(NC[C@H]4CCC[C@H](N)C4)cc3-c3ccc(C#N)c(F)c3)cc2)cn1` [Example 54, 4-(3-((((1S,3S)-3-aminocyclohexyl)methyl)amino)-1-(4-(1-methyl-1H-pyrazol-4-yl)phenyl)-1H-pyrazol-5-yl)-2-fluorobenzonitrile], the IC50 in assay [1], in assay [2] (setting [3]) and in assay [2] (setting [4]) was < 500 nM throughout.

With `Cn1cc(-c2cccc(-n3nc(NC[C@H]4CCC[C@H](N)C4)cc3-c3ccc(C#N)c(F)c3)c2)cn1` [Example 55, 4-(3-((((1S,3S)-3-aminocyclohexyl)methyl)amino)-1-(3-(1-methyl-1H-pyrazol-4-yl)phenyl)-1H-pyrazol-5-yl)-2-fluorobenzonitrile], the IC50 in assay [1] is < 500 nM; in assay [2] (setting [3]), 500 to 1000 nM; in assay [2] (setting [4]), < 500 nM.

Take `N#Cc1ccc(-c2cc(NC[C@H]3CCC[C@H](N)C3)nn2-c2ccc(-c3cnn(CCO)c3)cc2)cc1F` [Example 56, 4-(3-((((1S,3S)-3-aminocyclohexyl)methyl)amino)-1-(4-(1-(2-hydroxyethyl)-1H-pyrazol-4-yl)phenyl)-1H-pyrazol-5-yl)-2-fluorobenzonitrile]: the IC50 in assay [1], in assay [2] (setting [3]) and in assay [2] (setting [4]) was < 500 nM each time.

`N#Cc1ccc(-c2cc(NC[C@H]3CCC[C@H](N)C3)nn2-c2cccc(-c3cnn(CCO)c3)c2)cc1F` [Example 57, 4-(3-((((1S,3S)-3-aminocyclohexyl)methyl)amino)-1-(3-(1-(2-hydroxyethyl)-1H-pyrazol-4-yl)phenyl)-1H-pyrazol-5-yl)-2-fluorobenzonitrile]: the values for the concentration for half-maximal inhibition (IC50) in assay [1], in assay [2] (setting [3]) and in assay [2] (setting [4]) were < 500 nM, 1000 to 10000 nM and < 500 nM, respectively.

On to `N#Cc1ccc(-c2cc(NC[C@H]3CCC[C@H](N)C3)nn2-c2ccc(-c3cnn(CCCO)c3)cc2)cc1F` [Example 58, 4-(3-((((1S,3S)-3-aminocyclohexyl)methyl)amino)-1-(4-(1-(3-hydroxypropyl)-1H-pyrazol-4-yl)phenyl)-1H-pyrazol-5-yl)-2-fluorobenzonitrile], for which the half-maximal inhibitory concentration (IC50) in assay [1], in assay [2] (setting [3]) and in assay [2] (setting [4]) was < 500 nM in each case.

Regarding `CS(=O)(=O)n1cc(-c2ccc(-n3nc(NC[C@H]4CCC[C@H](N)C4)cc3-c3ccc(C#N)c(F)c3)cc2)cn1` [Example 59, 4-(3-((((1S,3S)-3-aminocyclohexyl)methyl)amino)-1-(4-(1-(methylsulfonyl)-1H-pyrazol-4-yl)phenyl)-1H-pyrazol-5-yl)-2-fluorobenzonitrile], the IC50 in assay [1] was < 500 nM; in assay [2] (setting [3]), 1000 to 10000 nM; in assay [2] (setting [4]), < 500 nM.

With `CS(=O)(=O)n1cc(-c2cccc(-n3nc(NC[C@H]4CCC[C@H](N)C4)cc3-c3ccc(C#N)c(F)c3)c2)cn1` [Example 60, 4-(3-((((1S,3S)-3-aminocyclohexyl)methyl)amino)-1-(3-(1-(methylsulfonyl)-1H-pyrazol-4-yl)phenyl)-1H-pyrazol-5-yl)-2-fluorobenzonitrile], the 50% inhibitory concentration (IC50) in assay [1] is 1000 to 10000 nM; in assay [2] (setting [3]) it was 1000 to 10000 nM; in assay [2] (setting [4]) it was < 500 nM.

For `N#Cc1ccc(-c2cc(NC[C@H]3CCC[C@H](N)C3)nn2-c2ccc(-n3ccnn3)cc2)cc1F` [Example 61, 4-(1-(4-(1H-1,2,3-triazol-1-yl)phenyl)-3-((((1S,3S)-3-aminocyclohexyl)methyl)amino)-1H-pyrazol-5-yl)-2-fluorobenzonitrile], the IC50 in assay [1], in assay [2] (setting [3]) and in assay [2] (setting [4]) was < 500 nM each time.

With `N#Cc1ccc(-c2cc(NC[C@H]3CCC[C@H](N)C3)nn2-c2cccc(-n3ccnn3)c2)cc1F` [Example 62, 4-(1-(3-(1H-1,2,3-triazol-1-yl)phenyl)-3-((((1S,3S)-3-aminocyclohexyl)methyl)amino)-1H-pyrazol-5-yl)-2-fluorobenzonitrile], the IC50 in assay [1] is 500 to 1000 nM; in assay [2] (setting [3]), 1000 to 10000 nM; in assay [2] (setting [4]), < 500 nM.

For the compound `N#Cc1ccc(-c2cc(NC[C@H]3CCC[C@H](N)C3)nn2-c2ccc(C(=O)N3CCCC3)cc2)cc1F` [Example 63, 4-(3-((((1S,3S)-3-aminocyclohexyl)methyl)amino)-1-(4-(pyrrolidine-1-carbonyl)phenyl)-1H-pyrazol-5-yl)-2-fluorobenzonitrile], the IC50 in assay [1], in assay [2] (setting [3]) and in assay [2] (setting [4]) was < 500 nM throughout.

With `N#Cc1ccc(-c2cc(NC[C@@H]3CCC[C@@H](N)C3)nn2-c2ccc(C(=O)N3CCCC3)cc2)cc1F` [Example 64, 4-(3-((((1R,3R)-3-aminocyclohexyl)methyl)amino)-1-(4-(pyrrolidine-1-carbonyl)phenyl)-1H-pyrazol-5-yl)-2-fluorobenzonitrile], the IC50 is 1000 to 10000 nM in assay [1], 1000 to 10000 nM in assay [2] (setting [3]) and < 500 nM in assay [2] (setting [4]).

For the compound `N#Cc1ccc(-c2cc(NC[C@H]3CCC[C@H](N)C3)nn2-c2ccc3[nH]ncc3c2)cc1F` [Example 65, 4-(3-((((1S,3S)-3-aminocyclohexyl)methyl)amino)-1-(1H-indazol-5-yl)-1H-pyrazol-5-yl)-2-fluorobenzonitrile], the IC50 in assay [1] is < 500 nM; in assay [2] (setting [3]), 500 to 1000 nM; in assay [2] (setting [4]) it was < 500 nM.

For the compound `Cn1ccc2cc(-n3nc(NCC4CCC[C@H](N)C4)cc3-c3ccc(C#N)c(F)c3)ccc21` (stereo partly drawn) [Example 66, 4-(3-((((1,3S)-3-aminocyclohexyl)methyl)amino)-1-(1-methyl-1H-indol-5-yl)-1H-pyrazol-5-yl)-2-fluorobenzonitrile], the IC50 in assay [1], in assay [2] (setting [3]) and in assay [2] (setting [4]) was < 500 nM each time.

In the case of `Cn1cc2ccc(-n3nc(NC[C@H]4CCC[C@H](N)C4)cc3-c3ccc(C#N)c(F)c3)cc2n1` [Example 67, 4-(3-((((1S,3S)-3-aminocyclohexyl)methyl)amino)-1-(2-methyl-2H-indazol-6-yl)-1H-pyrazol-5-yl)-2-fluorobenzonitrile], the 50% inhibitory concentration (IC50) in assay [1] is 500 to 1000 nM; in assay [2] (setting [3]), < 500 nM; in assay [2] (setting [4]), < 500 nM.

As for `Cn1nnc2cc(-n3nc(NC[C@H]4CCC[C@H](N)C4)cc3-c3ccc(C#N)c(F)c3)ccc21` [Example 68, 4-(3-((((1S,3S)-3-aminocyclohexyl)methyl)amino)-1-(1-methyl-1H-benzo[d][1,2,3]triazol-5-yl)-1H-pyrazol-5-yl)-2-fluorobenzonitrile], the half-maximal inhibitory concentration (IC50) in assay [1], in assay [2] (setting [3]) and in assay [2] (setting [4]) was < 500 nM throughout.

With `Cn1nc2ccc(-n3nc(NC[C@H]4CCC[C@H](N)C4)cc3-c3ccc(C#N)c(F)c3)cc2n1` [Example 69, 4-(3-((((15,3S)-3-aminocyclohexyl)methyl)amino)-1-(2-methyl-2H-benzo[d][1,2,3]triazol-5-yl)-1H-pyrazol-5-yl)-2-fluorobenzonitrile], the IC50 in assay [1] and in assay [2] (setting [4]) was < 500 nM throughout.

For the compound `N#Cc1ccc(-c2cc(NC[C@@H]3CCC[C@@H](N)C3)nn2-c2ccc3nn(CCO)cc3c2)cc1F` [Example 70, 4-(3-((((1R,3R)-3-aminocyclohexyl)methyl)amino)-1-(2-(2-hydroxyethyl)-2H-indazol-5-yl)-1H-pyrazol-5-yl)-2-fluorobenzonitrile], the half-inhibitory concentration (IC50) in assay [1] is < 500 nM; in assay [2] (setting [3]), 1000 to 10000 nM; in assay [2] (setting [4]) it was < 500 nM.

In the case of `N#Cc1ccc(-c2cc(NC[C@@H]3CCC[C@@H](N)C3)nn2-c2ccc3c(cnn3CCO)c2)cc1F` [Example 71, 4-(3-((((1R,3R)-3-aminocyclohexyl)methyl)amino)-1-(1-(2-hydroxyethyl)-1H-indazol-5-yl)-1H-pyrazol-5-yl)-2-fluorobenzonitrile], the IC50 in assay [1], in assay [2] (setting [3]) and in assay [2] (setting [4]) was < 500 nM in each case.
